Data reported in US9220794B2, “Two-photon fluorescent probes for imaging of total sulfide in live cell and tissue, and quantitative estimation of total sulfide concentration using the same” (Korea University Research and Business Foundation, priority 2013, dated 2015).

Assays:
[1] = One-photon absorption and emission spectra, fluorescence quantum yield; type: physicochemical; conditions: for 10^−4 ε: value is ε×10^−4
Protocol: The solvatochromic effect observed for the compound of [Chemical Formula 2-6] may have resulted from the […] dipole moment.
Absorption spectra were recorded on the Hewlett-Packard 8453 diode array spectrophotometer and fluorescence spectra were obtained with the Amico-Bowman series 2 luminescence spectrometer with a 1-cm standard quartz cell.

[2] = Measurement of two-photon cross section (fs fluorescence technique, rhodamine 6G reference); type: physicochemical; conditions: for Φδmax, two-photon action cross section: uncertainty ±15%
Protocol: Two-photon cross section (δ) was determined using a femtosecond (fs) fluorescence measurement technique.
The compound of [Chemical Formula 2-5] and the compound of [Chemical Formula 2-6] were dissolved in 20 mM HEPES buffer (pH 7.2) and 3.0×10^−6 M HEPES/EtOH (1/1) and then two-photon induced fluorescence intensity was measured at 740-940 nm using rhodamine 6G as a reference, whose two-photon property has been well characterized. The two-photon fluorescence intensities of the reference and the compound of [Chemical Formula 2-6] and the compound of [Chemical Formula 2-5] were determined.
The two-photon cross section was calculated from δ=δr(Ssφrφrcr)/(Srφsφscs). In the equation, the subscripts s and r stand for the sample, i.e., the compound of [Chemical Formula 2-6] and the compound of […], respectively. S denotes the intensity of the signal collected using a CCD detector, φ is the fluorescence quantum yield (measured using coumarin 307 and rhodamine B according to the literature), […] fluorescence collection efficiency, and c is the number density of molecules in solution. δr is the two-photon cross section of the reference molecule.

[3] = Kinetic studies in solution: reaction of the probe with sulfide
Source text: The reaction between the compound of [Chemical Formula 2-6] […] For example, the compound of [Chemical Formula 2-6] was synthesized from the reaction of the compound of [Chemical Formula 2-5] and HS^−. Also, precipitation of sulfur or sulfide was reported in the reaction between phenyl azide and Na2S.
This followed pseudo first-order kinetics with kobs=2.89×10^−4 s^−1 (FIG. 1b).
The k2 value calculated from the slope of the plot was 5.13 M^−1s^−1 (measured in HEPES buffer).
Reactions of the compound of [Chemical Formula 2-6] (5 μM) with Na2S (100-500 μM) in HEPES buffer or HEPES/EtOH (1/1, pH 7.2) were followed by monitoring of the increase in the fluorescence of the compound of [Chemical Formula 2-5] at 525-650 nm using a luminescence spectrometer.
The kinetic studies in a TP mode were conducted by the same procedure described above except that the TPEF was collected upon excitation at 750 nm.
In all cases, the plots of −ln(F^∞2−F2) vs. t were linear with good correlations. The kobs values were obtained from the slopes of the plots and the K2 values were obtained from the slopes of the plots of kobs vs. [HS^−]. [HS^−] was calculated by assuming that all of the Na2S was converted to HS^− and H2S, that is, [Na2S]=[H2S]+[HS^−], and using the relationship [H2S]/[HS^−]=[H^+]/Ka=0.794 in HEPES/EtOH (1/1, pH=7.2).

[4] = Selectivity for sulfide: ratiometric response (F2/F1) in the presence of various analytes
Protocol: The ratio of fluorescence intensities (F2/F1) measured at a short wavelength (F1) and a long wavelength (F2) at 0, 60 and 120 min is shown. All the data were obtained at 37° C. in HEPES buffer. Excitation wavelengths for one-photon and two-photon processes were 370 nm (short wavelength) and 750 nm (long wavelength), respectively.
To test whether the compound of [Chemical Formula 2-6] can selectively detect HS^− over other biologically relevant species, the ratiometric response of the compound of [Chemical Formula 2-6] was determined in the presence of various analytes.

HeLa cells [5] = assay: Kinetic estimation of total sulfide concentration in HeLa cells (TPEF); type: cell-based, human
Protocol: To quantitatively estimate the total sulfide concentration in living cells, the TPEF intensity of HeLa cells labeled with the compound of [Chemical Formula 2-6] was monitored in the absence and presence of Na2S, cysteine (Cys) and glutathione (GSH) with 20-30 minute intervals.
Since H2S and HS^− are in equilibrium and [H2S]/[HS^−]=[H^+]/Ka=0.794 in HEPES/EtOH (1/1, pH=7.2), it seems appropriate to present the total sulfide concentration ([H2S]+[HS^−]).
Kinetic experiments in HeLa cells were conducted in the same manner except that TPEF intensities from HeLa cells labeled with the compound of [Chemical Formula 2-6] upon excitation at 750 nm were monitored with 20-30 minute intervals.
The average TPEF intensities at given time and the SB2/SA1 ratio was obtained by dividing the TPEF intensity of [Chemical Formula 2-6] at 390-450 nm by that of [Chemical Formula 2-5] at 525-650 nm in the HeLa cells (FIG. 1b) were used in the kobs calculation.
The kobs value was measured at 10 regions of interest (ROIs) from three independent cell lines.
To evaluate the effect of Na2S, cysteine and GSH, HeLa cells were incubated with the compound of [Chemical Formula 2-6] (2 μM) and then treated with Na2S (100, 300 μM), cysteine (500 μM) and GSH (500 μM) for 30 minutes. The cells were then washed 3 times with FBS-free DMEM and subjected to kinetic measurement.

HeLa cells [6] = assay: Cell viability, CCK-8 kit; type: cell-based, human; conditions: incubation condition
[7] = pH sensitivity of the fluorescence; type: physicochemical; conditions: biologically relevant pH range
[8] = HEPES buffer (20 mM HEPES, 100 mM KCl, pH 7.4)

SMILES: COCCOCCC1(CCOCCOC)c2cc(NC(=O)OCc3ccc(N=[N+]=[N-])cc3)ccc2-c2ccc(-c3nc4ccccc4s3)cc21 [Chemical Formula 2-6]
- Δλmax, shift of absorption spectrum with solvent polarity ([1]; 1,4-dioxane to HEPES buffer): 8 nm
- Δλ^FImax, shift of emission spectrum with solvent polarity ([1]; 1,4-dioxane<DMF<EtOH<HEPES/EtOH (1/1)<HEPES buffer): 31 nm
- Φ, fluorescence quantum yield ([1]; EtOH): 0.87
- λ^(1)max, one-photon absorption maximum ([1]; EtOH): 354 nm
- λ^flmax, one-photon emission maximum ([1]; EtOH): 437 nm
- 10^−4 ε ([1]; EtOH): (4.27) M^−1cm^−1
- Φ, fluorescence quantum yield ([1]; HEPES buffer): 0.013
- λ^(1)max, one-photon absorption maximum [1, 8]: 360 nm
- λ^flmax, one-photon emission maximum [1, 8]: 444 nm
- ε at maximum absorption ([1]; HEPES buffer, pH 7.4): 25000 M⁻¹ cm⁻¹
- Φ, fluorescence quantum yield ([1]; HEPES/EtOH (1/1)): 0.41
- λ^(1)max, one-photon absorption maximum ([1]; HEPES/EtOH (1/1)): 352 nm
- λ^flmax, one-photon emission maximum ([1]; HEPES/EtOH (1/1)): 440 nm
- 10^−4 ε ([1]; HEPES/EtOH (1/1)): (4.11) M^−1cm^−1
- 10^−4 ε ([1]; HEPES): (2.50) M^−1cm^−1
- λ^(2)max, two-photon maximum ([2]; HEPES): 740 nm
- Φδmax, two-photon action cross section ([2]; HEPES buffer, 2-6 at 740 nm, 2-5 at 750 nm): 0.67 GM
- λ^(2)max, two-photon maximum ([2]; HEPES/EtOH (1/1)): 740 nm
- increase of action cross section (φδ) in HEPES/EtOH (1/1) versus HEPES buffer ([2]; HEPES/EtOH (1/1) vs HEPES buffer): 12 fold
- Φδmax, two-photon action cross section ([2]; HEPES/EtOH (1/1), GM = 10^−50 cm^4s/photon): 12 GM
- k2, second-order rate constant of reaction with HS^− ([3]; HEPES buffer, slope of kobs vs. [HS^−]): 5.13 M⁻¹ s⁻¹
- k2, second-order rate constant of reaction with HS^− ([3]; HEPES/EtOH (1/1, pH=7.2), calculated using pKa (H2S)=7.10): 5.17 M⁻¹ s⁻¹
- influence of p-dinitrobenzene (electron acceptor) on kobs ([3]; addition of p-dinitrobenzene): not influenced
- kobs, pseudo first-order rate constant ([3]; probe 5 μM + 100 μM Na2S, HEPES buffer, 37° C.): 0.000289 s⁻¹
- reactivity toward other biologically relevant species ([4]; 10 mM GSH, 1 mM Cys, 1 mM 2-ME, RSS, RNS, ROS, Ala, Glu, metal ions): no reactivity
- increase of relative fluorescence intensity ratio (F2/F1) ([4]; 100 mM Na2S (55.7 mM HS^−), HEPES buffer): 110 fold
- F2/F1 after deazidation ([4]; HEPES buffer): 110
- reactivity toward commercially available GSH ([4]; commercially available GSH): small reactivity
- reactivity toward purified GSH ([4]; purified GSH): no reactivity
- kobs in labeled HeLa cells (HeLa cells [5]; HeLa cells labeled with 2-6, no additive): 0.0 ± 0.1 s⁻¹
- total sulfide concentration ([H2S]+[HS^−]) in HeLa cells (HeLa cells [5]; no additive, probe 2-6): 0.0 ± 0.1 µM
- toxicity (CCK-8 kit) (HeLa cells [6]): negligible toxicity
- pH sensitivity [7]: pH-insensitive
